Source: paper PMC5893361 (International Journal for Parasitology, 2018)
Like-named read-outs stand apart in the source and are kept apart here.

How the values were obtained:
BmVAL-1 = target: T1, BmVAL-1 (Brugia malayi, UniProt A0A0J9Y762); assay: radioligand saturation binding, Q-sepharose adsorption
T1 construct: gene bma-scl-11.3; mature protein without 16-residue signal peptide, two vector-derived C-terminal residues; 206 residues; secreted from Nicotiana benthamiana; N-glycosylated at N52 and N138
T1 sequence (A0A0J9Y762 entry or part of it): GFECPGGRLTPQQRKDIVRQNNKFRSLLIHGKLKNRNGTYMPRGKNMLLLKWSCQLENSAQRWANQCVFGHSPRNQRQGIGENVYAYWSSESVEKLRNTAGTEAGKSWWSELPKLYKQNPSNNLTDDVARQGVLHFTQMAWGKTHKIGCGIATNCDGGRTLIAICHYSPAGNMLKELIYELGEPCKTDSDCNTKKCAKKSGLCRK

Pry1 = target: T2, Pry1 (Saccharomyces cerevisiae, UniProt P47032); assay: as above
T2 construct: construct not described here (full length secreted protein or CAP domain)
T2 sequence (P47032 20-299): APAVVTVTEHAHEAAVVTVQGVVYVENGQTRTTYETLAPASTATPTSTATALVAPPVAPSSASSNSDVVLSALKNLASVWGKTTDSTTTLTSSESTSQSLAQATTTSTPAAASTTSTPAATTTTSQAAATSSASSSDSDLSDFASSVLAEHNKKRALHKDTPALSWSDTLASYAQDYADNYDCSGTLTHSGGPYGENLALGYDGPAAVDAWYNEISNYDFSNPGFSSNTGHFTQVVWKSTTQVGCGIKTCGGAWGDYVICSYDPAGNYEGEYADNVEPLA

| Structure (SMILES) | Kd (BmVAL-1) [µM] | Kd (Pry1) [µM] | Kd (BmVAL-1; read-out: Kd) [µM] |
| --- | --- | --- | --- |
| CC(C)CCC[C@@H](C)[C@H]1CC[C@H]2[C@@H]3CC=C4C[C@@H](O)CC[C@]4(C)[C@H]3CC[C@]12C [cholesterol] | 0.99 | 1.9 | – |
| CCCCCCCCCCCCCCCC(=O)O [palmitate] | – | – | 83 |
